Data from patent publication US20250221936A1, “ENGINEERED HEMICHANNELS, ENGINEERED VESICLES, AND USES THEREOF” (VIRGINIA TECH INTELLECTUAL PROPERTIES, INC., priority 2018, published 2025).
Entries after “also recorded” stand apart in the source; their conditions may differ.

Key:
[1] = biological target: T1, PKC-ε phosphorylation of Cx43-CT substrate at Ser368 (Rattus norvegicus, UniProt P08050); test: PKC-ε Cx43 CT S368 phosphorylation assay; type: biochemical; settings: peptides at 20 μM
T1 construct: substrate (Cx43-CT: amino acids 255 to 382); GST (N); made in house; host or cells: E. coli BL21 (Cx43 CT); PKC-ε purchased (Life, 37717L)
Experimental: PKC assay conditions were used to evaluate the PKC-ε phosphorylation of Cx43-CT substrate at Ser368 as we have described previously, with modifications 11. 400 ng/ml […] (Life, 37717L, Carlsbad, CA) was pre-diluted in enzyme dilution buffer (10 mM HEPES pH7.4, 0.01% CHAPS and 5 mM DTT) and assayed in 20 mM HEPES pH7.4, 10 mM/L MgCl2, 0.1 mM EGTA, 1× lipid mix (200 μg/ml phosphatidylserine (Avanti Polar Lipids 840032C),^20 μg/ml Diacylglycerol (Avanti Polar Lipids), 1 mM HEPES pH7.4, 0.03% CHAPS), 500 µM ATP (Sigma, A6419) and 14 μg/ml Cx43-CT substrate. Kinase assay buffer was supplemented with peptides to produce final concentrations of the reaction constituents, as indicated in figure legends. The mixture was incubated at 37° C. for 12 minutes and quenched by addition of LDS sample loading buffer (Bio Rad, 1610791). “XT sample buffer” is what was shown on the product label, whereas the component is similar as regular LDS buffer, containing about 5-10% lithium dodecyl sulphate. The reaction was Western blotted for pS368 Cx43 using the Phospho-Connexin43 (Ser368) antibody from Cell Signaling. Proteins were eluted off by stripping buffer (Millipore 2504) and re-probed for total Cx43 using the Sigma anti-rabbit antibody. Percent phosphorylation (% P) was quantified using Equation 1 and normalized with control group (PKC+, no peptide added).

adult mouse hearts = test: Langendorff ischemia-reperfusion (I/R) injury, LV contractility; settings: for recovery of LV contractile performance during reperfusion: pre-ischemic 20-minute peptide infusion, 20 min ischemia, 40 min reperfusion
Experimental: Male, 3-month-old, body weight 25±5 g C57BL/6 mice were used for this study and obtained from Charles River. Animals were randomly assigned to experimental groups and Left ventricular (LV) function was measured and myocardial ischemia-reperfusion injury (I/R) was induced as previously described^23. Briefly, 15 minutes after the injection of heparin at a dose of 200U/10 g body weight, the mouse was anesthetized by inhalation of isoflurane vapor and subjected to cervical dislocation upon the cessation of respiration. Thoracotomy was immediately performed and the heart excised. The heart was arrested in ice-cold Krebs-Henseleit (KH) buffer (in mM: 25 NaHCO3, 0.5 EDTA, 5.3 KCl, 1.2 MgSO4, 0.5 pyruvate, 118 NaCl, 10 glucose, 2.5 CaCl2). The aorta was isolated and cannulated in a Langendorff perfusion system. The heart was then perfused at a constant pressure of 75 mmHg with KH buffer, which was continually bubbled with 5% CO2/95% O2 at 37° C. Effluent from the Thebesian veins was drained by a thin polyethylene tube (PE-10) pierced through the apex of the LV. A water-filled balloon made of polyvinylchloride film was inserted in the LV and connected to a blood pressure transducer (Harvard Apparatus, 733866, MA). After a 30-minute stabilization period, a balloon volume (BV) generating an LV end-diastolic-pressure (EDP) of 0 mmHg, was determined for the heart. The BV was then increased stepwise up through 1, 2, 5, 8, 10, 12, 15, 18, 20, 25, 30 μl increments of 1-5 μl and contractile performance were recorded for 10 seconds at each step. The indexes of cardiac function were amplified by a Transducer Amplifier Module (Harvard Apparatus, 730065, MA). Data was recorded and analyzed using PowerLab 4/35 (ADInstruments, PL3504, CO) and LabChart V7 (ADInstruments, CO). The BV was then adjusted to set EDP at about 8-10 mmHg and held constant during the ensuing steps of the protocol. Baseline function (determined by EDP at about 8-10 mmHg) was recorded for 5 minutes. The perfused beating heart were then treated with freshly prepared peptide stocks (0.2 mM), which were infused using syringe pump (Kent Sci, CT) into the perfusion buffer in a mixing chamber above the heart at 5% of coronary flow rate, to deliver final concentrations of 10-50 μM or equivalent vehicle for 20 minutes. At the end of the peptide infusion period hearts were subjected to global, no-flow normothermic ischemia by turning off the perfusion flow for 20 min, followed by a reperfusion phase for 40 min. BV was retaken through the stepwise sequence of 1-5 μl increments between 1 and 30 μl, with contractile performance again being recorded for 10 seconds at each step. Cardiac LV function was recorded throughout the procedure. In the case of post-ischemic treatment with alpha CT11 peptide, peptide infusion was begun at the initiation of the reperfusion phase, continued for 20 minutes and then contractile function by BV increments was taken as per the other hearts. A set of hearts were freeze-clamped immediately after peptide infusion for Western blotting. The protocol is illustrated in FIG. 9.

T1 sequence (P08050 255-382): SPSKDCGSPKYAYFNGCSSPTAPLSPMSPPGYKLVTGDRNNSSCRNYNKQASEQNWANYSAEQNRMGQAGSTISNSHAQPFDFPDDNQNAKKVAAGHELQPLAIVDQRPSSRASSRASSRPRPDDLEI

Sequence | Cx43 S368 phosphorylation [1] | recovery of LV contractile performance during reperfusion (adult mouse hearts) | ability to induce S368 phosphorylation ([1]; greater than PKC ε+plus control, M1 AALAI or M4) | recovery of LV function (adult mouse hearts; 20-minute peptide infusion at initiation of reperfusion (post-ischemic)) | cardiac muscle loss (adult mouse hearts; ex vivo I/R injury)
RQPKIWFPNRRKPWKK RPRPAALAI (RQPKIWFPNRRKPWKKRPRPAALAI) [M1 AALAI] | neither M1 AALAI (SEQ ID NO: 134), M2 AALEI (SEQ ID NO: 135) nor M3 DDLAI (SEQ ID NO: 136) increased Cx43 S368 phosphorylation | no ability to improve recovery | – | – | –
RQPKIWFPNRRKPWKKRPRPDDLAI [M3 DDLAI] | neither M1 AALAI (SEQ ID NO: 134), M2 AALEI (SEQ ID NO: 135) nor M3 DDLAI (SEQ ID NO: 136) increased Cx43 S368 phosphorylation | no ability to improve recovery | – | – | –
RQPKIWFPNRRKPWKKRPRPDDLE [alpha CT1-I] | significant increase in PKC ε-mediated phosphorylation of Cx43 CT | significant functional recovery after I/R injury | – | – | –
RQPKIWFPNRRKPWKKRPRPDDLEI [alpha CT1] | – | notable recovery of LV function during reperfusion; also recorded: significant functional recovery after I/R injury | about 3 fold | did not result in significant recovery of LV function | reduce cardiac muscle loss by more than half
